Measured values taken from patent US20120245188A1, “METHODS OF TREATING MEMORY LOSS AND ENHANCING MEMORY PERFORMANCE” (priority 2010, published 2012).

Columns and labels:
[1] = system: seventeen month old male Fischer-344 rats; assay: Spatial reference memory, Morris Water Maze in aged rats; assay type: in vivo, rat
From the text: Working memory can also be tested using the Morris water maze. In general, the Morris water maze is a large round tub of opaque water with […] located 1-2 cm under the water's surface. The rat is placed on a start platform. The rat swims around until it finds the other platform to stand on. External cues, such as patterns or the standing researcher, are placed around the pool in the same spot every time to help the rat learn where the end platform is. The researcher measures how long it takes for a rat to find hidden platform, by changing or moving and using different spatial cues. The Morris water maze tests the spatial learning, cognitive maps and memory. The rats under the Morris water maze test may be given particular drugs or treatment conditions to see if these impair or enhance short-term memory. In one embodiment, the subject may be administered a pharmaceutical composition comprising SB 239063. The role of SB239063 on spatial memory performance was tested in the aged rat model. […] Dosing was initiated three days prior to testing and continued throughout the experiment until sacrifice (FIG. 1). Rats were tested on a maze battery including the spatial reference memory Morris maze (MM), and a delay match to sample task (DMS) where the spatial location of the platform needed to be updated on a daily basis, thereby evaluating short term memory (FIG. 2). Spatial Reference Memory—Morris Water Maze: For the Morris Water Maze, 6 trials per day for 3 days were carried out. […] Mean (±Standard Error) swim distance across all days of testing for all rats are depicted in FIG. 3.

[2] = system: seventeen month old male Fischer-344 rats; assay: Working memory, Delay Match to Sample water maze in aged rats; assay type: in vivo, rat; settings: high dose 30 mg/kg/day i.p.
Experimental: Other methods of evaluating spatial and visual working memory include Delayed-Match to Sample (DMS) asymmetrical 3-choice task, which is illustrated in detail in the Example section. The visible platform task was used to confirm that animals have the ability to perform the procedural components of water-escape maze testing, including the visual and motoric capacities necessary to swim towards and climb onto a platform. The role of SB239063 on spatial memory performance was tested in the aged rat model. […] Dosing was initiated three days prior to testing and continued throughout the experiment until sacrifice (FIG. 1). Rats were tested on a maze battery including the spatial reference memory Morris maze (MM), and a delay match to sample task (DMS) where the spatial location of the platform needed to be updated on a daily basis, thereby evaluating short term memory (FIG. 2). […] There was a significant Trial×Treatment Interaction in the process, and the swim distance F(5,10)=2.298 (p=0.0151). The high-dose receiving group learned the task faster, indicated by committing fewer errors compared to vehicle-only rats on trial 3 (FIG. 4B).

[3] = system: adjuvant-induced arthritis; settings: 10 mg/kg, administered orally, rats; cited from earlier work
[4] = system: moderate stroke; settings: oral administration of 15 mg/kg before moderate stroke; cited from earlier work
[5] = system: cultured neurons; settings: cited from earlier work
[6] = biological target: β form of p38 MAPK (Homo sapiens, UniProt Q15759); settings: cited from earlier work
Chain of β form of p38 MAPK (Q15759 whole entry): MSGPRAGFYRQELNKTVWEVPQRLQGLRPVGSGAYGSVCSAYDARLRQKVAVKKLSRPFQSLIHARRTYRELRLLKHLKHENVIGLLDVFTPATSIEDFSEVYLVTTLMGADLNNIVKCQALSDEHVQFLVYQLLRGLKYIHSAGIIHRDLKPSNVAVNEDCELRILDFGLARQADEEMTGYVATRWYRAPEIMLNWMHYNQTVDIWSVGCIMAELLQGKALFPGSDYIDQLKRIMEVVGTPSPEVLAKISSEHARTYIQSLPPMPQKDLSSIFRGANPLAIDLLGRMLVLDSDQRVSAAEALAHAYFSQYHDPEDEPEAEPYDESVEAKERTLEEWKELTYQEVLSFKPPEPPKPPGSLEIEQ

COc1nccc(-c2c(-c3ccc(F)cc3)ncn2[C@H]2CC[C@H](O)CC2)n1 [SB239063, trans-1-(4-hydroxycyclohexyl)-4-(4-fluorophenyl)-5-(2-methoxypyridimidin-4-yl)imidazole]
localization to the platformed quadrant during the probe trial by the last day of testing ([1]; all groups (15 and 30 mg/kg), p<0.005): localized to the platformed quadrant
linear trend for swim distance scores across days ([1]; high dose 30 mg/kg daily i.p., F(1,10)=1.531, p=0.244): did not show a linear trend
Morris Water Maze spatial reference memory performance as days progressed ([1]; high dose 30 mg/kg/day i.p.): impaired
linear trend for swim distance scores across days ([1]; low dose 15 mg/kg daily i.p., F(1,10)=19.253, p=0.001): showed a significant linear trend
Morris Water Maze spatial reference memory performance as days progressed ([1]; low dose 15 mg/kg/day i.p.): exhibited significant learning
Three Choice Task errors on trial 3 compared to vehicle-only rats ([2]; Fisher post hoc p=0.011): fewer errors
performance on DMS compared to vehicle-treated animals (learning of the new platform location) ([2]; p=0.01): enhanced performance
reduction of adjuvant-induced arthritis [3]: 51%
reduction of infarct volume [4]: 48%
reduction of neurological deficits [4]: 42%
protection against mild excitotoxic neuronal injury caused by NMDA ([5]; NMDA (N-methyl D-aspartate)): protect against mild excitotoxic neuronal injury
protection against cell death induced by oxygen glucose deprivation (OGD) or magnesium deprivation ([5]; cultured neurons): substantial protection against cell death
inhibition of β form of p38 MAPK [6]: inhibits
